Assay results reported in ChEMBL document CHEMBL4130471, “Design and synthesis of tranylcypromine derivatives as novel LSD1/HDACs dual inhibitors for cancer treatment” (Eur J Med Chem, 2017).

Tests used:
MGC-803 = assay: cells; format: functional, cell-based; conditions: Homo sapiens, MGC-803, 72 h
Description: Antiproliferative activity against human MGC803 cells incubated for 72 hrs by MTT assay

Histone deacetylase 2 = Histone deacetylase 2 (Homo sapiens, UniProt Q92769)
Description: Inhibition of C-terminal His-tagged full length human HDAC2 expressed in baculovirus expression system using Ac-peptide substrate incubated for 15 mins by fluorescence based assay

PC-3 = assay: cells; format: functional, cell-based; conditions: Homo sapiens, PC-3, 72 h
Description: Antiproliferative activity against human PC3 cells incubated for 72 hrs by MTT assay

[1] = biological target: T1, Amine oxidase [flavin-containing] A (Homo sapiens, UniProt P21397)
T1 sequence (P21397 whole entry): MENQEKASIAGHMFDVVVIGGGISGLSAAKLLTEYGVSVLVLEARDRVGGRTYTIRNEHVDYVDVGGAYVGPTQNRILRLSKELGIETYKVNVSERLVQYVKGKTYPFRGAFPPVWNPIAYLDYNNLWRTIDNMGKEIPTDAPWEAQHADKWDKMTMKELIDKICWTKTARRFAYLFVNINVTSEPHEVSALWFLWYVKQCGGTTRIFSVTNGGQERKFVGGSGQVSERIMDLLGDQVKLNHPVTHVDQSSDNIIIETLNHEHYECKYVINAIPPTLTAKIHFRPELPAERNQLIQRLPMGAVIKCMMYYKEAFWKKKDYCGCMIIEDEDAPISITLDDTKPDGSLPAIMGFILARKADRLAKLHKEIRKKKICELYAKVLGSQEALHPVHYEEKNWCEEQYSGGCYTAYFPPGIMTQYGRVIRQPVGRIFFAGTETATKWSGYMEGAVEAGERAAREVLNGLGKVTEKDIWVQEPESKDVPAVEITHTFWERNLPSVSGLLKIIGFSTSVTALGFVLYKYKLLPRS
Description: Inhibition of MAOA (unknown origin) using beetle luciferin as substrate by MAO-Glo assay

[2] = biological target: T2, Amine oxidase [flavin-containing] B (Homo sapiens, UniProt P27338)
T2 sequence (P27338 whole entry): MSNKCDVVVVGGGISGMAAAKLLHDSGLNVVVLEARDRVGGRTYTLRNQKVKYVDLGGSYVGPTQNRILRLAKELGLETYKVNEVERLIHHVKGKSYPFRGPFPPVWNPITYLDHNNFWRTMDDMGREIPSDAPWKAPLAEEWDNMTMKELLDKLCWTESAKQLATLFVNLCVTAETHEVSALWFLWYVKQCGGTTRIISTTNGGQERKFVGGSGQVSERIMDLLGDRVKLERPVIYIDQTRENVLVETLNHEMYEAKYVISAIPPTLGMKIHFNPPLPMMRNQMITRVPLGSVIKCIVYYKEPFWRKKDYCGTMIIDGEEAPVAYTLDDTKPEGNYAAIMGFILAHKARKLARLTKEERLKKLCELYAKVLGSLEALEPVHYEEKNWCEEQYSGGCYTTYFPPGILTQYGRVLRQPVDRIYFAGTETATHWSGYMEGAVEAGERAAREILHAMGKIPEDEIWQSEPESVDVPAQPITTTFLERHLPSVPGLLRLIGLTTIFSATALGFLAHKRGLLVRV
Description: Inhibition of MAOB (unknown origin) using beetle luciferin as substrate by MAO-Glo assay

[3] = biological target: Lysine-specific histone demethylase 1A (Homo sapiens, UniProt O60341)
Description: Inhibition of recombinant LSD1 (157 to 852 amino acids) (unknown origin) expressed in Escherichia coli BL21(DE) using H3K4me2 substrate by amplex red and horseradish peroxidase based fluorescence assay

SW-620 = assay: cells; format: functional, cell-based; conditions: Homo sapiens, SW-620, 72 h
Description: Antiproliferative activity against human SW620 cells incubated for 72 hrs by MTT assay

Histone deacetylase 1 = Histone deacetylase 1 (Homo sapiens, UniProt Q13547); assay: Inhibition of C-terminal His-tagged and C-terminal FLAG-tagged human HDAC1 expressed in baculovirus expression system using Ac-peptide substrate incubated for 15 mins by fluorescence based assay
Chain of Histone deacetylase 1 (Q13547 whole entry): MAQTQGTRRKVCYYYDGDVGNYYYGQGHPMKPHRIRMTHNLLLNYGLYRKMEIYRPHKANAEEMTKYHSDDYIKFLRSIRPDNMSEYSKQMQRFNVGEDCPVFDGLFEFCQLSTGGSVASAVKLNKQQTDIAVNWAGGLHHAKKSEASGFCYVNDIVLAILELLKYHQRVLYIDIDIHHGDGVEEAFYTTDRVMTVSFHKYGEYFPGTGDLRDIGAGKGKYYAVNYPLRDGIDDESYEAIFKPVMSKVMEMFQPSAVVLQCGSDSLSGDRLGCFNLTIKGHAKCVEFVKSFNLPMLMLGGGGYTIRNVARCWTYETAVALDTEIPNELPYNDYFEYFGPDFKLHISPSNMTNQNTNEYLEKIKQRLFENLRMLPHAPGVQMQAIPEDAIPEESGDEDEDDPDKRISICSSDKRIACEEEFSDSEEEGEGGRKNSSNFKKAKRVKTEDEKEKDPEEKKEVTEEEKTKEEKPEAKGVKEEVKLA

A549 = assay: cells; format: functional, cell-based; conditions: Homo sapiens, A549, 72 h
Description: Antiproliferative activity against human A549 cells incubated for 72 hrs by MTT assay

Histone deacetylase 5 = Histone deacetylase 5 (Homo sapiens, UniProt Q9UQL6); assay: Inhibition of C-terminal His-tagged human HDAC5 (656-1122 residues) expressed in baculovirus expression system using Ac-peptide substrate incubated for 15 mins by fluorescence based assay
Chain of Histone deacetylase 5 (Q9UQL6 whole entry, the tested form may be a part): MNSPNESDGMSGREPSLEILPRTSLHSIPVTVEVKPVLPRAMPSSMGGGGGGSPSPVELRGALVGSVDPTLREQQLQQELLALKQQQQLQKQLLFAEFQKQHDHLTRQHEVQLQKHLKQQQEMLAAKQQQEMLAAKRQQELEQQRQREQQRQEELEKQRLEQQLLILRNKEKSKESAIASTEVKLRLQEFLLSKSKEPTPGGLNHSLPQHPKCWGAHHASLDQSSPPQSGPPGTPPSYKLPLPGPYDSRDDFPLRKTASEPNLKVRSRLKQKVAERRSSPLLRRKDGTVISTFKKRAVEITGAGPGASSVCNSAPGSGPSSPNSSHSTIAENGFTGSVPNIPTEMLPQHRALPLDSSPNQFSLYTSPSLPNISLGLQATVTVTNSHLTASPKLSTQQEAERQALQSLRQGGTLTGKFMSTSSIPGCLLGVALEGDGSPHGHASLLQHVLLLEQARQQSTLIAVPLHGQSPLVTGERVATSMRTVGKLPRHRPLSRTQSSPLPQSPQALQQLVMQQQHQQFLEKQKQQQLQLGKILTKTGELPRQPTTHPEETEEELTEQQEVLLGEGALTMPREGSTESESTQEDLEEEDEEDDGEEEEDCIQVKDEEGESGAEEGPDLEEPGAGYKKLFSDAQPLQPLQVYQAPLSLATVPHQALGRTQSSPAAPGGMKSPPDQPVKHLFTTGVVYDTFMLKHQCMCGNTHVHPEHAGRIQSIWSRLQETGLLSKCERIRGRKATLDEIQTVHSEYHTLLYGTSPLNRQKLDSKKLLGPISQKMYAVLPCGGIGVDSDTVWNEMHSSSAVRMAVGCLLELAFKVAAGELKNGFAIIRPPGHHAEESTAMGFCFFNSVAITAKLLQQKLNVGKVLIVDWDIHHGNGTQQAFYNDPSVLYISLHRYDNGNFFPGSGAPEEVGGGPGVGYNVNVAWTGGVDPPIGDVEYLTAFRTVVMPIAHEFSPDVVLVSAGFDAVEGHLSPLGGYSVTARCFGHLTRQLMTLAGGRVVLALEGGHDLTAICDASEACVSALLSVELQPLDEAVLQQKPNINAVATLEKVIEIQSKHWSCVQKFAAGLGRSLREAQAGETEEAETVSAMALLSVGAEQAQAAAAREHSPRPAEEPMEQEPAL

MCF7 = assay: cells; format: functional, cell-based; conditions: Homo sapiens, MCF7, 72 h
Description: Antiproliferative activity against human MCF7 cells incubated for 72 hrs by MTT assay

Chain of Histone deacetylase 2 (Q92769 whole entry): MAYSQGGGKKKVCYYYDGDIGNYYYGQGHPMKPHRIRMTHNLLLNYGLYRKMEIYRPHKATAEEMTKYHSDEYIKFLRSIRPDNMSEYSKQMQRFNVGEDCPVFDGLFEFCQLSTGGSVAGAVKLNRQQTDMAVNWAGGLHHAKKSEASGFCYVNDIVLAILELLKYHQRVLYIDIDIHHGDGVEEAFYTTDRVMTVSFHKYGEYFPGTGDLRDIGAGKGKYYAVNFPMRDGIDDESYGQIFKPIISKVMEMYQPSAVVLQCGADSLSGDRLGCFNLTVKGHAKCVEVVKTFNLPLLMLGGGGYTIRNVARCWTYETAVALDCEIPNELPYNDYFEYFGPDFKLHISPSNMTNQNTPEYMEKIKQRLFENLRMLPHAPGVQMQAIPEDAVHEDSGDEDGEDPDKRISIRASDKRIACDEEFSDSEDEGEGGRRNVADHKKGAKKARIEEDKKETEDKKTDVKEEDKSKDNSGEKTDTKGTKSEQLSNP

IC50 (MGC-803) [µM] | IC50 (Histone deacetylase 2) [µM] | IC50 (PC-3) [µM] | IC50 [1] [µM] | IC50 [2] [µM] | IC50 [3] [µM] | IC50 (SW-620) [µM] | IC50 (Histone deacetylase 1) [µM] | IC50 (A549) [µM] | IC50 (Histone deacetylase 5) | IC50 (MCF7) [µM] | SMILES
13.6 | 0.491 | 11.6 | 36.9 | > 100 | 3.85 | 26.9 | 0.314 | 3.17 | Not Active | 22.1 | Nc1ccccc1NC(=O)/C=C/c1ccc(CNC2CC2c2ccccc2)cc1 (centres undefined)
21.5 | 0.413 | 21.7 | 50.1 | > 100 | 7.16 | > 32 | 0.218 | 5.36 | Not Active | 19.5 | Nc1ccccc1NC(=O)c1ccc(CNC2CC2c2ccccc2)cc1 (centres undefined)
– | – | – | > 100 | > 100 | – | – | – | – | – | – | O=C(CCCCCCC(=O)Nc1ccccc1)NO [VORINOSTAT]
